This is an account of results in ChEMBL document CHEMBL5727076, “GDF-8 inhibitors” (2018).

One test deals with TGF-beta receptor type-2 (Homo sapiens, UniProt P37173). The experiment in a line: Compounds were dissolved at 10 mM in dimethylsulfoxide (DMSO) and evaluated at eleven concentrations.
The target in the next test is TGF-beta receptor type-1 (Homo sapiens, UniProt P36897, T204D). Briefly: The reaction is incubated for 1 hour at room temperature and the HTRF signal was measured on an Envision plate reader (Ex: 340 nm; Em: 520 nm/495 nm). Inhibition data were calculated by comparison to no enzyme control reactions for 100% inhibition and vehicle-only reactions for 0% inhibition. The final concentration of reagents in the assay are 1 nM HIS-TGFβR1 T204D or HIS-TGFβR2 WT, 0.2 nM anti-HIS detection antibody, labeled small molecule probe (at Kd) and 0.5% DMSO. Dose response curves were generated to determine the concentration required inhibiting 50% of kinase activity (IC50). Compounds were dissolved at 10 mM in dimethylsulfoxide (DMSO) and evaluated at eleven concentrations.
Sequence of TGF-beta receptor type-1 (P36897 34-503 T204D limits assumed): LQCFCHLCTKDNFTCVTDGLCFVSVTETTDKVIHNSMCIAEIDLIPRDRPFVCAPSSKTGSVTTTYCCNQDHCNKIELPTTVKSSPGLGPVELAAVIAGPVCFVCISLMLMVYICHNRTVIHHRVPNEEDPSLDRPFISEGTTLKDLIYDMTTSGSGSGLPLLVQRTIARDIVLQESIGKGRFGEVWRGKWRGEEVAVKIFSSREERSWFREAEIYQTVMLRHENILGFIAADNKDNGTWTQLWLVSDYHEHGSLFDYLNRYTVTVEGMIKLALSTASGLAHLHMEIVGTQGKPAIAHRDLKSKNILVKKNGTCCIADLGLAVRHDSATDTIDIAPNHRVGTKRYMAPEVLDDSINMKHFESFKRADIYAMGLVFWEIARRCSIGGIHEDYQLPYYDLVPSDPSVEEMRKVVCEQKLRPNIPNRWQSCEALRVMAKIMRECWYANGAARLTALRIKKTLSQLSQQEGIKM

Sequence of TGF-beta receptor type-2 (P37173 whole entry): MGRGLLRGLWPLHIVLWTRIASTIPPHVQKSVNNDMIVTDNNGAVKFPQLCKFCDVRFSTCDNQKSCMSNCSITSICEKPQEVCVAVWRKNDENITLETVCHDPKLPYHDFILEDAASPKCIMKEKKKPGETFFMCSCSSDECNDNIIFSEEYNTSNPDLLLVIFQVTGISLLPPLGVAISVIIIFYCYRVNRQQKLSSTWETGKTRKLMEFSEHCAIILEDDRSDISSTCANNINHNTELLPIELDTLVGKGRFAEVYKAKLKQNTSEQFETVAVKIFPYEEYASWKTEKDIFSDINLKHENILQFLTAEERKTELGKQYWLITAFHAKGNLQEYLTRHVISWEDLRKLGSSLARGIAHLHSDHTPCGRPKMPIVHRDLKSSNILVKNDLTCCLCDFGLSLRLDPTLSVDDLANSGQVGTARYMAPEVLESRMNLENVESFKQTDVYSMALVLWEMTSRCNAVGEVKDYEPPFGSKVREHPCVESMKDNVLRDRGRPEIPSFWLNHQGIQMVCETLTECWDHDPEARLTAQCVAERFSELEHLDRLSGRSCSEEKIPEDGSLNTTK

The term IC50 denotes the point on the concentration scale where inhibition reaches its midpoint. `CNC(=O)c1cnc2ccc(-c3cccnc3-c3cccc(C)n3)cn12`: the results for the IC50 at TGF-beta receptor type-2 and on TGF-beta receptor type-1 were > 15000 nM and 2 nM, respectively.
As for `Cc1cccc(-c2ncccc2-c2ccc3ncc(C(=O)O)n3c2)n1`, the IC50 on TGF-beta receptor type-1 is 4 nM.
Regarding `N#Cc1cnc2ccc(-c3cccnc3-c3cccc(C(F)(F)F)n3)cn12`, the IC50 is > 15000 nM on TGF-beta receptor type-2 and 11 nM at TGF-beta receptor type-1.
As for `Cc1cccc(-c2ncccc2-c2ccn3ncc(C(N)=O)c3n2)n1`, the IC50 against TGF-beta receptor type-2 was > 15000 nM; at TGF-beta receptor type-1 it was 6 nM.
